In patent US20250269036A1, “METHODS FOR ENHANCEMENT OF ENGINEERED CELL THERAPIES IN CANCER TREATMENT” (PURDUE RESEARCH FOUNDATION, priority 2021, published 2025):
“Also recorded” adds a separate entry of the source.

Tests used:
[1] = tested on: M2-induced THP-1 macrophages; test: Secreted CCL18 and IL-1β in THP-1 macrophage supernatants by ELISA; assay type: cell-based, human; settings: ELISA, low concentration range (0.1-10 nM)
Description: FIGS. 6A-6D show graphical data representative of various marker levels measured from M2-induced THP-1 macrophages treated with different concentrations of drugs for 48 hours (FIGS. 6A and 6B) or for 2 hours, then displaced with fresh medium and cultured for the remaining 46 hours (FIGS. 6C and 6D). In both cases, cell supernatants were collected and secreted CCL18 protein and IL-1β was detected by ELISA.
CCL18 and IL-1β were quantified in induced THP-1 cell supernatants using a human DuoSet ELISA Development System (R&D Systems Europe, Abingdon, UK; #DY394-05) and an IL-1 beta Human ELISA Kit (Thermo Fisher Scientific, Waltham, MA; #BMS224-2) as described by manufactures. BALF samples were analyzed for mouse IFN-γ using ELISA MAX™ Deluxe (Biolegend, San Diego, CA; #430804).

[2] = tested on: IL-4, IL-6 plus IL-13 stimulated THP-1 cells (M2-like macrophages); test: Reprogramming of M2-polarized THP-1 macrophages, marker mRNA by qPCR; assay type: cell-based, human; settings: 2 hours; for CCL18 relative expression / CD206 relative expression / IL-1β relative expression: different nM concentrations, qPCR
Description: THP-1 cells were initially selected as a model system because this human monocytic cell line is known to acquire an M2-like phenotype and produce significant quantities of anti-inflammatory cytokines upon stimulation with IL-4, IL-6 plus IL-13.
THP-1 cells were seeded into 96-well plates at a density of 60,000 cells/well. Cells were differentiated into unpolarized macrophages by 48 hours incubation with 200 nM PMA followed by 24 hours incubation in fresh RPMI medium. […] Cultures were maintained at 37° C. in a humidified 5% CO2 incubator.
Total RNA was isolated from 1×10^5-2×10^5 macrophages using a Quick-RNATM MicroPrep kit (Zymo Research, Irvine, CA) according to the manufacturer-recommended protocol. […] IL-6, CXCL10, IFNα, IFN-γ and CD86 were used as markers for an M1 phenotype, while CCL18, CD206, CD163 and Arg1 were employed as markers for the M2 phenotype. IL-1β, PDGFβ, MMP9 and TIMP 3 were measured as indicators of an anti-inflammatory phenotype. IRAK-4 was used as an indicator of TLR7 stimulation. To control for specificity of the amplification products, a melting curve analysis was performed. […] Each sample was analyzed independently in triplicate for each marker.
Primarily, human monocytic (THP-1) cells were induced to the M2-like phenotype using the methods and materials previously described. In particular, THP-1 cells were seeded into 96-well plates at a density of 60,000 cells/well. Cells were differentiated into unpolarized macrophages by 48h incubation with 200 nM PMA followed by 24 hours incubation in fresh RPMI medium. The resulting macrophages were polarized to an M2-like phenotype by incubation with 20 ng/ml IL-4, 20 ng/ml IL-13, and 5 ng/mL IL-6 for 48h. Cultures were maintained at 37° C. in a humidified 5% CO2 incubator.
In addition to the nonconjugated TLR7 agonist, conjugated compounds of the present disclosure were likewise evaluated. […] The cells were subsequently harvested for gene analysis by qPCR and the relative expression of CCL18 (FIG. 14A), CD206 (FIG. 14B), and IL-1β (FIG. 14C) analyzed.

healthy mice = test: Plasma cytokine levels in healthy mice after tail vein injection; assay type: in vivo; settings: healthy mice, tail vein, 10 nmol, 1 hour or 1.5 hours after treatment
Description: (FIGS. 20A-C) Measurement of plasma IL-6 (FIG. 20A), IFNα (FIG. 20B) and TNFα (FIG. 20C) (n=3). (FIGS. 20D-F). The effect of drug concentration on plasma levels of IL-6 (FIG. 20D), IFNα (FIG. 20E), and TNFα (FIG. 20F) was determined at 1.5h, 1h, or 1h after treatment, respectively (n=2) (FIG. 20G).
(FIGS. 36C and 36D). The effect of drug on plasma levels of IL-6 (FIG. 36C) and TNFα (FIG. 36D) was determined at 1 hour or 1.5 hours after treatment.

[3] = tested on: FRβ-expressing macrophages; test: In vivo folate imaging of organs with OTL38; design: species or system C57BL/6 mice
Description: (§1) To evaluate if anti-inflammatory lung macrophages in these mice can be specifically targeted with folate-linked drugs, 10 days after the instillation, 10 nmol (for in vivo imaging) or 100 nmol (for in vivo labeling) of a folate-linked, near infrared fluorescent dye (OTL38) with or without 200-fold excess of FA-glucosamine (a competitor of OTL38) was injected into the tail veins of BM-treated mice and the dye uptake in the major organs was evaluated.
Finally, for the in vivo folate imaging studies, major organs (heart, lung, spleen, liver, small intestine, large intestine, and kidney) were resected and imaged using an AMI live imager (Spectral Instruments Imaging, Tucson, AZ). For in vivo folate receptor labeling studies, lungs of the mice were harvested immediately following euthanasia, digested with a lung dissociation kit (Miltenyi Biotec, Bergisch Gladbach, DE; #130-098-427) as described by gentleMACS Octo Dissociator with Heathers (Miltenyi Biotec, Bergisch Gladbach, DE; #130-096-427) as described by manual and filtered through a 70 μm cell strainer (Miltenyi Biotec, Bergisch Gladbach, DE; #130-098-462). Cells collected in the filtrate were depleted of erythrocytes by […] lysis, washed 2x in cold PBS and labeled for 30 min on ice with antibodies to desired macrophage markers (FITC-CD11b, Biolegend, San Diego, CA; #101205; FE-F4/80, Biolegend, San Diego, CA; #123109). Labeled macrophages were then washed twice in PBS, stained with 7AAD (viability stain) for 15 min and analyzed by flow cytometry using BD Accuri C6 Software (BD Biosciences, San Jose, CA).
FIGS. 7C and 7D show FRβ IHC staining of human IPF lung tissue (FIG. 7C) and healthy human lung tissue (FIG. 7D). […] After 2 hours, mice were sacrificed prior to analysis. […] For in vivo folate receptor labeling studies, lungs of the mice were harvested immediately following euthanasia, digested and then labeled with antibodies to desired macrophages markers (FITC-CD11b, PE-F4/80) and 7AAD (live/dead staining) and analyzed by flow cytometry.

[4] = tested on: FRβ positive macrophages in the inflamed lung; test: In vivo folate receptor labeling of lung macrophages, flow cytometry; design: species or system C57BL/6 mice
Description: as §1
Finally, for the in vivo folate imaging studies, major organs (heart, lung, spleen, liver, small intestine, large intestine, and kidney) were resected and imaged using an AMI live imager (Spectral Instruments Imaging, Tucson, AZ). […] Labeled macrophages were then washed twice in PBS, stained with 7AAD (viability stain) for 15 min and analyzed by flow cytometry using BD Accuri C6 Software (BD Biosciences, San Jose, CA).
FIGS. 7C and 7D show FRβ IHC staining of human IPF lung tissue (FIG. 7C) and healthy human lung tissue (FIG. 7D). […] For in vivo folate receptor labeling studies, lungs of the mice were harvested immediately following euthanasia, digested and then labeled with antibodies to desired macrophages markers (FITC-CD11b, PE-F4/80) and 7AAD (live/dead staining) and analyzed by flow cytometry. […]

| Compound | secretion of CCL18 protein [1] | CCL18 relative expression [2] | CD206 relative expression [2] | IL-1β relative expression [2] | other results |
| --- | --- | --- | --- | --- | --- |
| Nc1nc(C(F)(F)F)cc2c1[nH]c(=O)n2Cc1ccc(NCCN2CCCC(CO)C2)nc1 (stereo not shown) [Compound 3A] | downregulated |  |  |  |  |
| Nc1nc2ncc(CNc3ccc(C(=O)NC(CCC(=O)N[C@@H](CSSCCOC(=O)OCC4CCCN(CCNc5ccc(Cn6c(=O)[nH]c7c(N)nc(C(F)(F)F)cc76)cn5)C4)C(=O)O)C(=O)O)cc3)nc2c(=O)[nH]1 (stereo partly shown) [Compound 3B] | downregulated | reduced | reduced | reduced |  |
| Nc1nc2ncc(CNc3ccc(C(=O)N[C@@H](CCC(=O)NCCOCCOCCOCCOCC4CCCN(CCNc5ccc(Cn6c(=O)[nH]c7c(N)nc(C(F)(F)F)cc76)cn5)C4)C(=O)O)cc3)nc2c(=O)[nH]1 (stereo partly shown) [Compound 3D] | downregulated | reduced | reduced | reduced | effectiveness in reducing M2 markers relative to the other compounds ([2]; CCL18, CD206, IL-1β): most effective |
| CCOCc1nc2c(N)nc3ccccc3c2n1CC(C)(C)O [Compound A, reference compound] |  |  |  |  | systemic cytokine release (plasma IL-6, TNFα) (healthy mice): stimulated systemic cytokine release |
| OTL38 |  |  |  |  | lung accumulation with competitor ([3]; BM-treated mice, simultaneous 200-fold excess folate-glucosamine): nearly quantitative blockade of lung accumulation; OTL38 fluorescence in organs of healthy mice ([3]; tail vein, 10 nmol, 2 hours): only observed in the kidneys; accumulation in lungs of BM-treated mice ([3]; tail vein, 10 nmol, day 10 post BM, 2 hours): in the lungs of BM-treated but not healthy mice; also recorded: pronounced accumulation in the fibrotic lungs; folate-dye retention in macrophage-like cells with competitor ([4]; 100 nmol plus 200-fold excess folate-glucosamine): blocked essentially all folate-dye retention; macrophage-like cells showing folate-targeted dye retention ([4]; fibrotic mice, 100 nmol, tail vein): about 22% |
